Measurements: publication PMC8221158, “Novel pyrrolizines bearing 3,4,5-trimethoxyphenyl moiety: design, synthesis, molecular docking, and biological evaluation as potential multi-target cytotoxic agents” (Journal of Enzyme Inhibition and Medicinal Chemistry, 2021)

Columns and labels:
[1] = test system: A2780; assay: MTT cell proliferation assay; assay type: cell-based, human; details: for IC50: Homo sapiens, A2780, MTT, 72 h treatment, n = 3, read-out: IC50 (µM ± SD) A2780; for Selectivity index A2780: IC50 MRC-5 / IC50 A2780
Protocol: (§1) MCF-7 (human breast adenocarcinoma), A2780 (human ovarian cancer) and HCT116 (human colorectal carcinoma), and MRC-5 (normal foetal lung fibroblast) cell lines were bought from the ATCC and were cultured in flasks which were incubated at 37 °C in an atmosphere of 5% CO2, 95% air, and 100% relative humidity, to maintain continuous logarithmic growth. MCF-7, A2780, and HCT116 were maintained in RPMI-1640 media (100 U/mL penicillin, 100 µg/mL streptomycin, and 10% foetal bovine serum, Gibco, Carlsbad, CA). MRC-5 cells were maintained in EMEM (100 U/mL penicillin, 100 µg/mL streptomycin, and 10% foetal bovine serum, Gibco, Carlsbad, CA). Doxorubicin (5 μg/mL, for three months) added for RPMI-1640 media containing MCF7 cells was used to develop doxorubicin-resistant MCF7/ADR cells. All cancer and normal cell lines were cultured according to our previous report. Cells were used within 10–20 passages and were checked for mycoplasma every 6 months, by measuring the bioluminescence (Myco Alert sample detection kit; Lonza, Basel, Switzerland) using the multiplate reader (Synergy HT, BioTek, Winooski, VT).
(§2) The MTT assay was used to measure the cytotoxicity and growth inhibitory activities and cytotoxicity of the new compounds according to our previous report[13]^,[17]. Cells from flasks of 70–80% confluency were separately seeded in 96-well flat-bottom microculture plates (Nalgene-Nunc, Thermo Fisher Scientific, Roskilde, Denmark) at a density of 3 × 10^3 cells (MCF-7, A2780, and MRC-5), 1 × 10^4 cells (HCT116), to a volume of 180 μL/well of culture medium. A Neubauer haemocytometer was used for cell counting. Cells were incubated at 37 °C overnight to allow attachment to the wells. The final concentrations of each compound in wells were: 0–50 μM in 200 μL of media (DMSO 0.1%). Lapatinib (Cayman, Ann Arbor, MI) was used as a positive control at the same final concentrations. Medium only (20 μL) was added to each control well, and each concentration was tested in triplicates (n = 3). Following incubation for 72 h, 50 μL MTT was added into each well. Plates were incubated for 3 h, the supernatant was aspirated, and 100 μL of DMSO was added to each well. The optical density (OD) of the purple formazan is proportional to the number of viable cells. […] GraphPad Prism version 5.00 for Windows was used for analysis (La Jolla, CA). Cytotoxicity of the new compounds was calculated after treatment of cancer/normal cell lines for 72 h. The absorbance of the reduced MTT was determined using a microplate reader A570 nm.
(§3) The cytotoxic activity of the new compounds (15a–e, 16a–e, 20, and 21) was evaluated in vitro using MTT assay. The MTT assay depends on the reduction of the yellow tetrazole dye (MTT) to the purple formazan by the active mitochondrial dehydrogenase enzymes indicating the viability of the cells which can be measured as OD. The new compounds were evaluated against three non-resistant cancer cell lines: MCF-7, and A2780 cell lines were selected to compare cytotoxicity of the new compounds with the previously reported results of compounds 9a,b[13]. Cytotoxicity of the new compounds was also evaluated also against HCT116 cells which lacks COX-2 protein[33]^,[34].

[2] = test system: HCT116; assay: MTT cell proliferation assay; assay type: cell-based, human; details: for IC50: Homo sapiens, HCT-116, MTT, 72 h treatment, n = 3, read-out: IC50 (µM ± SD) HCT116; for Selectivity index HCT116: IC50 MRC-5 / IC50 HCT116
Protocol: as §1, §2, §3

[3] = test system: MCF-7; assay: MTT cell proliferation assay; assay type: cell-based, human; details: for IC50: Homo sapiens, MCF7, MTT, 72 h treatment, n = 3, read-out: IC50 (µM ± SD) MCF-7; for Selectivity index MCF-7: IC50 MRC-5 / IC50 MCF-7
Protocol: as §1, §2, §3

[4] = test system: MCF-7, HCT116, and A2780 cancer cell lines; assay: MTT assay, three cancer cell lines taken together (average, overall range); assay type: cell-based, human; details: Homo sapiens; MCF-7, HCT116, A2780; read-out: Average of the three IC50 values against the three cancer cell lines
Protocol: Cells from flasks of 70–80% confluency were separately seeded in 96-well flat-bottom microculture plates (Nalgene-Nunc, Thermo Fisher Scientific, Roskilde, Denmark) at a density of 3 × 10^3 cells (MCF-7, A2780, and MRC-5), 1 × 10^4 cells (HCT116), to a volume of 180 μL/well of culture medium. […] The final concentrations of each compound in wells were: 0–50 μM in 200 μL of media (DMSO 0.1%). Lapatinib (Cayman, Ann Arbor, MI) was used as a positive control at the same final concentrations. Medium only (20 μL) was added to each control well, and each concentration was tested in triplicates (n = 3). Following incubation for 72 h, 50 μL MTT was added into each well. Plates were incubated for 3 h, the supernatant was aspirated, and 100 μL of DMSO was added to each well. The optical density (OD) of the purple formazan is proportional to the number of viable cells. […] The absorbance of the reduced MTT was determined using a microplate reader A570 nm.

[5] = test system: MCF-7/ADR cells; assay: MTT assay, doxorubicin-resistant cells; assay type: cell-based; details: Homo sapiens, NCI/ADR-RES, 72 h treatment, n = 3, read-out: IC50 (µM ± SD) MCF-7/ADR
Protocol: as §1
The MTT assay was used to measure the cytotoxicity and growth inhibitory activities and cytotoxicity of the new compounds according to our previous report[13]^,[17]. Cells from flasks of 70–80% confluency were separately seeded in 96-well flat-bottom microculture plates (Nalgene-Nunc, Thermo Fisher Scientific, Roskilde, Denmark) at a density of 3 × 10^3 cells (MCF-7, A2780, and MRC-5), 1 × 10^4 cells (HCT116), to a volume of 180 μL/well of culture medium. A Neubauer haemocytometer was used for cell counting. Cells were incubated at 37 °C overnight to allow attachment to the wells. The final concentrations of each compound in wells were: 0–50 μM in 200 μL of media (DMSO 0.1%). Lapatinib (Cayman, Ann Arbor, MI) was used as a positive control at the same final concentrations. […] Cytotoxicity of the new compounds was calculated after treatment of cancer/normal cell lines for 72 h. The absorbance of the reduced MTT was determined using a microplate reader A570 nm. […]

[6] = target: T1, porcine tubulin (Sus scrofa, UniProt P02550+P02554); assay: Tubulin polymerisation fluorescence-based assay; assay type: biochemical; details: 5 μM, 37 °C, 60 min; qualitative
T1 construct: purchased Cytoskeleton Inc., Denver, CO BK011P
T1 sequence (P02550 whole entry): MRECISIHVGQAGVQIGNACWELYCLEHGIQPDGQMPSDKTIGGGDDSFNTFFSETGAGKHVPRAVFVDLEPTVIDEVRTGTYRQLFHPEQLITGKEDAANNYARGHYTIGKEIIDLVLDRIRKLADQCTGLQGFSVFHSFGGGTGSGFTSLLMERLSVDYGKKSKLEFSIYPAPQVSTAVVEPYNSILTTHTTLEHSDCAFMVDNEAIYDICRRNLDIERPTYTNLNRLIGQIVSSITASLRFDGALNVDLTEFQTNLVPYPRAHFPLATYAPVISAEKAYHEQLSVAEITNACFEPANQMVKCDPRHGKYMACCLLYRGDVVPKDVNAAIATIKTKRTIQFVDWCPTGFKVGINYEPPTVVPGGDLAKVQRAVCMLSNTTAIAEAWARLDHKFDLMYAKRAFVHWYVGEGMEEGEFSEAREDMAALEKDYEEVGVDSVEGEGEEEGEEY
T1 sequence (P02554 whole entry): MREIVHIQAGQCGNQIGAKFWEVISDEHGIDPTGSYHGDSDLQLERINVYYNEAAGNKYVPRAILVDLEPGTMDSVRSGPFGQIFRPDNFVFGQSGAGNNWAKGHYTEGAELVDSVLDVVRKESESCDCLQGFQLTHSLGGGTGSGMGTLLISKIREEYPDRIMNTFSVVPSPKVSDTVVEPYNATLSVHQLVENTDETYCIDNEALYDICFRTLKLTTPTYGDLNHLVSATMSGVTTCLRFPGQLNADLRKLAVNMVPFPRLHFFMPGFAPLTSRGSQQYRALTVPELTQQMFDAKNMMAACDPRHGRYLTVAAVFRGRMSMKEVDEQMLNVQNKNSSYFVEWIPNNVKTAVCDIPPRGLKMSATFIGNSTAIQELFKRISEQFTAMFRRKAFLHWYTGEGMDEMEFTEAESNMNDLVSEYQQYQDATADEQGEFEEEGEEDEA
Protocol: The effect of compounds 16a,b,d on tubulin polymerisation was measured in vitro using tubulin polymerisation fluorescence-based assay (cytoskeleton, cat. BK011P, https://www.cytoskeleton.com/bk011p). The assay was performed following the previous report[22] and according to the manufacturer’s instructions. Briefly, 2 mg/mL porcine tubulin was dissolved in buffer 1 (80 mM PIPES, 2 mM MgCl2, 0.5 mM EGTA pH 6.9, 10 µM fluorescent reporter, 1 mM GTP, 15% glycerol) to a final concentration of […]. Then tubulin solution was transferred to a pre-warmed 96-well plate that contained the test compounds 16a,b,d (5 μM), paclitaxel (3 μM), CaCl2 (0.5 μM), and control buffer. The polymerisation of tubulin was monitored as fluorescence at 37 °C for 60 min. Relative fluorescence units (RFU) were determined at 360 nm for excitation and at 460 nm for emission using the Varioskan Flash spectral scanning multimode reader (Thermo Fisher Scientific, Roskilde, Denmark) at a reading speed of 1 cycle/min.
In the current study, the new compounds were designed bearing the trimethoxy phenyl moiety aiming to obtain new cytotoxic agents that can interfere with tubulin polymerisation in cancer cells. […] In this assay, light scattering by microtubules which is directly proportional to the concentration of the microtubule polymer was used as a measure of tubulin polymerisation. The study was performed using a fluorescence-based tubulin polymerisation assay kit (Cytoskeleton Inc., Denver, CO; Cat # BK011P) following the manufacturer’s instructions (https://www.cytoskeleton.com/bk011p) and according to the previous report.
Paclitaxel (3 μM) was used as a tubulin polymerisation enhancer (positive control, enhancer), while calcium chloride (CaCl2, 0.5 μM) was used as a positive control (inhibitor) as per the manufacturer’s instructions (https://www.cytoskeleton.com/pdf-storage/datasheets/bk011p.pdf). The vehicle was also used to evaluate the polymerisation when tubulin is incubated in the absence of the test compound. The effect of the selected compounds (5 μM) on tubulin polymerisation was evaluated and compared with those of the positive control. The results are represented in Figure 8.

Row | Structure (SMILES) | IC50 [1] [µM] | Selectivity index A2780 [1] | IC50 [2] [µM] | Selectivity index HCT116 [2] | IC50 [3] [µM] | Selectivity index MCF-7 [3] | IC50 [4] [nM] | IC50 [5] [µM] | effect on tubulin polymerisation [6] | melting point [°C]
1 | COc1cc(C(=O)Nc2c(C#N)c3n(c2C(=O)Nc2ccc(Cl)cc2)CCC3)cc(OC)c1OC [16d, N-(4-Chlorophenyl)-7-cyano-6-(3,4,5-trimethoxybenzamido) -2,3-dihydro-1H-pyrrolizine-5-carboxamide] | 0.03 ± 0.005 | 270.00 | 0.097 ± 0.001 | 83.51 | 0.071 ± 0.001 | 114.08 | 66 | 0.52 ± 0.066 | moderate inhibitory activity | 281 to 283
2 | COc1cc(C(=O)Nc2c(C#N)c3n(c2C(=O)Nc2ccc(C)cc2)CCC3)cc(OC)c1OC [16b, 7-Cyano-N-(p-tolyl)-6-(3,4,5-trimethoxybenzamido)-2,3-dihydro-1H-pyrrolizine-5-carboxamide] | 0.18 ± 0.043 | 32.51 | 0.092 ± 0.001 | 63.60 | 0.068 ± 0.009 | 86.04 | 113 | 6.26 ± 0.71 | moderate inhibitory activity | 265 to 267
3 | COc1cc(C(=O)Nc2c(C#N)c3n(c2C(=O)Nc2ccccc2)CCC3)cc(OC)c1OC [16a, 7-Cyano-N-phenyl-6-(3,4,5-trimethoxybenzamido)-2,3-dihydro-1H-pyrrolizine-5-carboxamide] | 0.044 ± 0.01 | 3.52 | 0.135 ± 0.007 | 1.15 | 0.082 ± 0.002 | 1.89 | 87 | 1.57 ± 0.04 | weak | 253 to 255
